Results on 15 molecules are retold here after ChEMBL document CHEMBL5550107, “Fluorescent probes and degraders of the sterol transport protein Aster-A” (Bioorg Med Chem, 2024).

The target of series [1] is T1, Protein Aster-A (Homo sapiens) (UniProt Q96CP6).
T1 sequence (whole entry): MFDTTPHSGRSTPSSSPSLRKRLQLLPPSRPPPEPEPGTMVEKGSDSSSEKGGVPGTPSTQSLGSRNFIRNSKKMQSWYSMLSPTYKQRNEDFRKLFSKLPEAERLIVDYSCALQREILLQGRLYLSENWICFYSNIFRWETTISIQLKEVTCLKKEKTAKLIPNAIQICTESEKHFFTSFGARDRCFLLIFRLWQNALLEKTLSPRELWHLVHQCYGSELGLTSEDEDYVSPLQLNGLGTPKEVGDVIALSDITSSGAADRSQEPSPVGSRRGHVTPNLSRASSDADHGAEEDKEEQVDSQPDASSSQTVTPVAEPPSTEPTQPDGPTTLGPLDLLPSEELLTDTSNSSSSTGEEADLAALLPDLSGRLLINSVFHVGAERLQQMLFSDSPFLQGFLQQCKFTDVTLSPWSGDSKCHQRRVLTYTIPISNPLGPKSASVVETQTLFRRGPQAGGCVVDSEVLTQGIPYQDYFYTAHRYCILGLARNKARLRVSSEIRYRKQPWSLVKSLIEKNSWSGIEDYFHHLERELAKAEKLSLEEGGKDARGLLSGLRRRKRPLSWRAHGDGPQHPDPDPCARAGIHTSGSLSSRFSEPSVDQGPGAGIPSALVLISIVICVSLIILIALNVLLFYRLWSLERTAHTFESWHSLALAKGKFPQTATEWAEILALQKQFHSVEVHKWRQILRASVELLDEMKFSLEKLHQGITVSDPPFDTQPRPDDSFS
Nature of the series: Binding affinity to aster A (unknown origin) assessed as change in melting temperature by differential scanning fluorimetry analysis. For orientation: In DSF a fluorescence change marks the thermal transition of the protein.

The target in series [2] is Oxysterol-binding protein-related protein 1 (OSBPL1A) (Homo sapiens) (UniProt Q9BXW6). Nature of the series: Binding affinity to ORP1 (unknown origin).
Series [3] deals with T2, Protein Aster-A (Homo sapiens, UniProt Q96CP6).
T2 sequence (Q96CP6 whole entry): T1 sequence (whole entry)
Nature of the series: Binding affinity to aster A (unknown origin) assessed as change in fluorescence intensity.

Series [4] concerns the target T2, Protein Aster-A. Put plainly: Binding affinity to aster A (unknown origin) by fluorescence polarization method.
In series [5] the target is T2, Protein Aster-A. Put plainly: Displacement of tert-butyl 2-(4-((3-(4-(3-((2-(2,6-dioxopiperidin-3-yl)-1,3-dioxoisoindolin-4-yl)amino)propoxy)butoxy)propyl)carbamoyl)benzamido)-3a,6,7,7a-tetrahydrothiazolo[5,4-c]pyridine-5(4H)-carboxylate from aster A (unknown origin) assessed as change in fluorescence intensity.
The target in series [6] is T2, Protein Aster-A. Put plainly: Displacement of 22-NBD-Chol from aster A (unknown origin) by fluorescence polarization method.
In series [7] the target is T1, Protein Aster-A (Homo sapiens). Nature of the series: Induction of aster A degradation in human A549 cells. The format is cell-based.
Series [8] has as its system MCF7. Nature of the series: Inhibition of autophagy in human MCF7 cells expressing eGFP-LC3. The series is classed as functional, cell-based.
Series [9] concerns the target Protein Aster-C (Homo sapiens) (UniProt Q8IYS0). Nature of the series: Binding affinity to aster C (unknown origin).
The target of series [10] is T3, Protein cereblon/Protein Aster-A (Homo sapiens, UniProt Q96SW2+Q96CP6). Put plainly: PROTAC activity at CRBN/aster A in human HeLa cells assessed as aster A degradation at 10 uM incubated for 18 hrs in presence of MLN4924 by Western blotting analysis. The series is classed as cell-based. In general terms: A western blot detects proteins with antibodies after separation by electrophoresis.
Target sequence in this assay (Q96SW2 whole entry, looked up, one chain of several): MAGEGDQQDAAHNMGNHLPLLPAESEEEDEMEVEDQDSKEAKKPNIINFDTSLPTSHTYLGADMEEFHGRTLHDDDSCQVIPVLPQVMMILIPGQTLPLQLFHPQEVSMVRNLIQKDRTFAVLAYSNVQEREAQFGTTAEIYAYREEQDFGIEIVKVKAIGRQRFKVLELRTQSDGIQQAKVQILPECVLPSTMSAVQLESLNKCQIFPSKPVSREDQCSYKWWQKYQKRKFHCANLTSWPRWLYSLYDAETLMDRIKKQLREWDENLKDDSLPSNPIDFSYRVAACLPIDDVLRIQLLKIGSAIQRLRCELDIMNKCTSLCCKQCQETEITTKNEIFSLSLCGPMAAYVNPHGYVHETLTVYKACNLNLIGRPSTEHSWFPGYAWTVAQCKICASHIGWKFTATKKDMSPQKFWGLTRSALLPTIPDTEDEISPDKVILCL

Series [11] is filed under the species Homo sapiens. Put plainly: Binding affinity to aster B (unknown origin).
The target of series [12] is T3, Protein cereblon/Protein Aster-A. Put plainly: PROTAC activity at CRBN/aster A in human HeLa cells at 10 uM incubated for 18 hrs by Western blotting analysis. The series is classed as cell-based.
Target sequence in this assay (Q96SW2 whole entry, looked up, one chain of several): as above
For series [13], the target named is T4, Steroidogenic acute regulatory protein, mitochondrial (Homo sapiens) (UniProt P49675).
T4 sequence (whole entry): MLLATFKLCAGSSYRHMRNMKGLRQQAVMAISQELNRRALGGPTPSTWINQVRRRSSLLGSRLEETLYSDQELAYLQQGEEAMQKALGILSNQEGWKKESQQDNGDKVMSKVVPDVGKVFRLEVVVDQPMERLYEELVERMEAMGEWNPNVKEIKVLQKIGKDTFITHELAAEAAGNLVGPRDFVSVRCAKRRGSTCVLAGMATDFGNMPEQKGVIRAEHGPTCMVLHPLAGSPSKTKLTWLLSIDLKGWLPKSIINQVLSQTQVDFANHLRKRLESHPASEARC
Put plainly: Binding affinity to STARD1 (unknown origin).

For series [14], the target named is T3, Protein cereblon/Protein Aster-A. Nature of the series: PROTAC activity at CRBN/aster A in human HeLa cells assessed as aster A degradation incubated for 18 hrs by Western blotting analysis. The series is classed as cell-based.
Series [15] shares this target. Put plainly: PROTAC activity at CRBN/aster A in human HeLa cells assessed as aster A degradation at 10 uM incubated for 18 hrs in presence of MG132 by Western blotting analysis. The format is cell-based.
Target sequence in this assay (Q96SW2 whole entry, looked up, one chain of several): as the sequence (Q96SW2 whole entry, looked up, one chain of several) above
The target is the same in series [16]. Nature of the series: PROTAC activity at CRBN/aster A in human HeLa cells assessed as maximum degradation incubated for 18 hrs by Western blotting analysis. The series is classed as cell-based.
Target sequence in this assay (Q96SW2 whole entry, looked up, one chain of several): as the sequence (Q96SW2 whole entry, looked up, one chain of several) above
For series [17], the target named is T1, Protein Aster-A (Homo sapiens). Nature of the series: Induction of aster A degradation in human MCF7 cells. The format is cell-based.
Series [18] is described as follows: Drug uptake in human HeLa cells assessed as increase in intracellular fluorescence at 10 uM incubated for 1 hr by […] microscopic analysis. The series is classed as ADME, cell-based.

For orientation: ΔTm means the shift of the melting midpoint relative to a reference. The term Kd denotes a measure of binding affinity in units of concentration. As usually defined, the IC50 is the concentration that inhibits the measured activity by half. Usually DC50 stands for the concentration giving 50% degradation. In general, Emax refers to the maximal effect, on the per cent scale that the assay sets.

Molecules are shown by their SMILES. Calls of active or inactive are those of the source. No cut-off for these calls is given here.

Oxysterol-binding protein-related protein 1 (OSBPL1A) (Homo sapiens), sequence (Q9BXW6 whole entry, looked up): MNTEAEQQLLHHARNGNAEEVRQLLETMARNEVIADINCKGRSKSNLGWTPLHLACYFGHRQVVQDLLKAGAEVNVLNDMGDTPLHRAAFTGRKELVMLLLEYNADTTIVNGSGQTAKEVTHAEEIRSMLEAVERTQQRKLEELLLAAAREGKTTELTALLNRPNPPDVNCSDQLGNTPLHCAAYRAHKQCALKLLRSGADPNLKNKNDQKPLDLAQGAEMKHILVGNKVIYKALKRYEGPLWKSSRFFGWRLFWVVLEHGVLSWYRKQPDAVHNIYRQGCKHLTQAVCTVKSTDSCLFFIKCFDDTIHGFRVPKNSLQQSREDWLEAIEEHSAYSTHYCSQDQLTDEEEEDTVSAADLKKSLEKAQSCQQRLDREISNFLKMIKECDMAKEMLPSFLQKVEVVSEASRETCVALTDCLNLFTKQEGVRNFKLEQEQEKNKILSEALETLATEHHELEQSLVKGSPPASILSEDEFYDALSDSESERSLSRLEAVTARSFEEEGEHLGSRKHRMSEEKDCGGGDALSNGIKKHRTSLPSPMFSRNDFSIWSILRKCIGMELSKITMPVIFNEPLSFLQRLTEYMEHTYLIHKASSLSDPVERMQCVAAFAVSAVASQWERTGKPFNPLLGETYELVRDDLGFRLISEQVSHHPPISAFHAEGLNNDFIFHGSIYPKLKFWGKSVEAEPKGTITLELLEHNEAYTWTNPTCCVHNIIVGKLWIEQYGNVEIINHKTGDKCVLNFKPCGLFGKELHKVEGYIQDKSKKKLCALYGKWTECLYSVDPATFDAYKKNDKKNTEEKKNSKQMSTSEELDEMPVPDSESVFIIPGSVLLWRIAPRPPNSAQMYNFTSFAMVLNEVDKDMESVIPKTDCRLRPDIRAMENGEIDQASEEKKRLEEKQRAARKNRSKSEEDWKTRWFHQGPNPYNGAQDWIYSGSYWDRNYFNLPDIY
Protein Aster-C (Homo sapiens), sequence (Q8IYS0 whole entry): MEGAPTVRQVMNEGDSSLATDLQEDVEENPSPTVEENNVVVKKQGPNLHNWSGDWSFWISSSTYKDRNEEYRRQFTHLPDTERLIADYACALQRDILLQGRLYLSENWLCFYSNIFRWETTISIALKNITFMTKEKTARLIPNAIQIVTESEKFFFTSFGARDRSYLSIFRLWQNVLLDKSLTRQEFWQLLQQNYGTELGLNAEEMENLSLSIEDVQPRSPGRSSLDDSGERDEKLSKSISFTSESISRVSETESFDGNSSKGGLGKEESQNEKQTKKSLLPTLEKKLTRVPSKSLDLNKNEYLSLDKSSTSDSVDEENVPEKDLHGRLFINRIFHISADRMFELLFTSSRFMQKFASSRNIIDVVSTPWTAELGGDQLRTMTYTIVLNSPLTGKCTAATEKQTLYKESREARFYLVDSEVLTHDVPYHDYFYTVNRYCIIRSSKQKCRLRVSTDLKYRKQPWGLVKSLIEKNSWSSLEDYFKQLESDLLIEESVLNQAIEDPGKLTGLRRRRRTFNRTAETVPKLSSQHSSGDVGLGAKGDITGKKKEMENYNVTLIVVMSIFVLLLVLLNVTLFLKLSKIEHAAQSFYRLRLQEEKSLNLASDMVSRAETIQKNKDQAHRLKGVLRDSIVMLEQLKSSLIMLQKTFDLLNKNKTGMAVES

For `CC(C)(C)OC(=O)N1CCC2N=C(NC(=O)c3ccc(C(=O)NCCOCCOCCOCCNc4cccc5c4C(=O)N(C4CCC(=O)NC4=O)C5=O)cc3)SC2C1` (configuration not stated), the ΔTm in series [1] was determined as 4.9 °C. In addition, the outcome in series [2] was Active. In addition, the values for the equilibrium dissociation constant (Kd) in series [3] and in series [4] were 88 nM and 49 nM, respectively.

Take `CC(C)(C)OC(=O)N1CCC2N=C(NC(=O)c3ccc(C(=O)NCCCOCCOCCCNc4cccc5c4C(=O)N(C4CCC(=O)NC4=O)C5=O)cc3)SC2C1` (configuration not stated): the ΔTm in [1] was determined as 5 °C. In [2], the outcome was Active. Besides, the results for the Kd in [3] and in series [4] were 110 nM and 37 nM, respectively.

For `CCN(CC)CCO[C@H]1CC[C@@]2(C)C(=CC[C@@H]3[C@@H]2CC[C@]2(C)C(=O)CC[C@@H]32)C1`, in series [1], the ΔTm stood at 5.6 °C.

In the case of `Nc1cccc2c1C(=O)N(C1CCC(=O)NC1=O)C2=O` (configuration not stated) [POMALIDOMIDE], the shift in melting temperature (ΔTm) in [1] was 0.1 °C. Further, the Kd in series [3] and in series [4] was over 5000 nM throughout.

As for `Cc1ncsc1-c1ccc(CNC(=O)[C@H]2C[C@H](O)CN2C(=O)[C@@H](NC(=O)CCCCCCCCCNC(=O)c2ccc(C(=O)Nc3nc4c(s3)CN(C(=O)OC(C)(C)C)CC4)cc2)C(C)(C)C)cc1`, the concentration for half-maximal inhibition (IC50) in [5] and in series [6] was over 10000 nM each time. The ΔTm in series [1] turned out to be 1.6 °C.

In the case of `CC(C)(C)OC(=O)NCCOCCOCCNc1cccc2c1C(=O)N(C1CCC(=O)NC1=O)C2=O` (configuration not stated), the ΔTm in [1] worked out at 0.3 °C. Moreover, the dissociation constant (Kd) in [3] and in series [4] was over 5000 nM throughout.

Take `Cc1ncsc1-c1ccc(CNC(=O)[C@H]2C[C@H](O)CN2C(=O)[C@@H](NC(=O)CCCCCCNC(=O)c2ccc(C(=O)Nc3nc4c(s3)CN(C(=O)OC(C)(C)C)CC4)cc2)C(C)(C)C)cc1`: the 50% inhibitory concentration (IC50) worked out at 2750 nM in [5] and 4680 nM in [6]. The ΔTm in [1] was 3.6 °C.

With `CC(C)(C)OC(=O)N1CCC2N=C(NC(=O)c3ccc(C(=O)NCCCOCCCCOCCCNc4cccc5c4C(=O)N(C4CCC(=O)NC4=O)C5=O)cc3)SC2C1` (configuration not stated), the thermal shift (ΔTm) in series [1] came to 5.7 °C. The result in series [7], in series [9], in series [10], in series [11], in [13] and in series [15] was inactive. The result in [17] was inactive. The result in [2] was Active. Also, in series [8], the “Autophagy inhibition (active/not active)” value was “Active”. Moreover, the Activity in [12] is 50%; in series [14] it was “Dose-Dependent Effect”. The DC50 in [14] is 4800 nM. The Kd in series [3] is 83 nM; in [4], 90 nM. The Emax in series [16] came out at 60%.

As for `CC(C)(C)OC(=O)N1CCC2N=C(NC(=O)c3ccc(C(=O)NCCCCCCCCCCNc4cccc5c4C(=O)N(C4CCC(=O)NC4=O)C5=O)cc3)SC2C1` (configuration not stated), in series [1], the thermal shift (ΔTm) came to 1.2 °C. Also, the outcome in [2] was Active. For the same molecule, in series [8], the “Autophagy inhibition (active/not active)” value is “inactive”. For the same molecule, the Kd in [3] and in [4] was over 5000 nM each time.

For the molecule `CC12CCC(O)CC1CCc1cnn(-c3ccccc3F)c12` (configuration not stated), the half-maximal inhibitory concentration (IC50) in series [5] and in [6] was over 10000 nM throughout. In addition, the ΔTm in series [1] stood at 0.2 °C.

On to `Cc1ncsc1-c1ccc(CNC(=O)[C@H]2C[C@H](O)CN2C(=O)[C@@H](NC(=O)COCCOCCNC(=O)c2ccc(C(=O)Nc3nc4c(s3)CN(C(=O)OC(C)(C)C)CC4)cc2)C(C)(C)C)cc1`, for which the IC50 in series [5] came to 1470 nM; in series [6], 3700 nM. Also, the ΔTm in series [1] amounted to 4.4 °C.

With `CC(C)(C)OC(=O)N1CCC2N=C(NC(=O)c3ccc(C(=O)NCCCCCCNc4cccc5c4C(=O)N(C4CCC(=O)NC4=O)C5=O)cc3)SC2C1` (configuration not stated), the Drug uptake entry in series [18] is reported as “Active”. Besides, in series [1], the ΔTm is 3.2 °C. Moreover, in [2], the outcome was Active. In addition, the “Autophagy inhibition (active/not active)” value in series [8] is “inactive”. The dissociation constant Kd worked out at 765 nM in series [3] and 745 nM in series [4].

Take `CC(C)(C)OC(=O)N1CCC2N=C(NC(=O)c3ccc(C(=O)NCCOCCOCCNc4cccc5c4C(=O)N(C4CCC(=O)NC4=O)C5=O)cc3)SC2C1` (configuration not stated): the ΔTm in [1] amounted to 4 °C. Moreover, the outcome in series [2] was Active. Moreover, the “Autophagy inhibition (active/not active)” value in series [8] was “Active”. In addition, the values for the Kd in series [3] and in series [4] were over 5000 nM and 149 nM, respectively.

Consider `CC(C)(C)OC(=O)N1CCC2N=C(NC(=O)c3ccc(C(=O)NCCCOCCOCCOCCCNc4cccc5c4C(=O)N(C4CCC(=O)NC4=O)C5=O)cc3)SC2C1` (configuration not stated), for which the ΔTm in series [1] came to 5.8 °C. In [2], the outcome was Active. Also, the “Autophagy inhibition (active/not active)” value in [8] was “Active”. For the same molecule, the Kd in series [3] is 86 nM; in series [4], 68 nM.

For the molecule `CC(C)Oc1ccc(C(=O)Nc2nc3c(s2)CN(C(=O)OC(C)(C)C)CC3)cc1`, the figures for the IC50 in series [5] and in series [6] were 1180 nM and 1930 nM, respectively. In addition, the shift in melting temperature (ΔTm) in series [1] amounted to 6.8 °C.
